According to ChEMBL document CHEMBL1150951, “New mycalolides from the marine sponge Mycale magellanica and their interconversion” (J Nat Prod, 1998):
≈ marks a conversion by molar mass, not a printed value.

System: L1210
Experiment: Cytotoxicity against mouse L1210 cells
Format: functional, cell-based

SMILES	IC50
CO[C@H]1C/C=C/c2nc(co2)-c2nc(co2)-c2nc(co2)[C@@H](OC)[C@@H](C)C(=O)/C=C/C[C@H](O)CC(=O)O[C@@H](C[C@H](OC)[C@@H](C)CCC(O)[C@@H](C)[C@H](OC(C)=O)[C@H](C)/C=C/N(C)C=O)[C@@H]1C (stereo partly drawn) [30-HYDROXYMYCALOLIDE A]	0.019 µg/mL (≈ 0.0209 µM)
COC(CO)C(=O)O[C@H](CC[C@H](C)[C@H](C[C@@H]1OC(=O)C[C@@H](O)C/C=C/C(=O)[C@H](C)[C@H](OC)c2coc(n2)-c2coc(n2)-c2coc(n2)/C=C/C[C@H](OC)[C@H]1C)OC)[C@H](C)[C@H](OC(C)=O)[C@H](C)/C=C/N(C)C=O (stereo partly drawn) [38-HYDROXYMYCALOLIDE B]	0.015 µg/mL (≈ 0.0148 µM)
CO[C@H]1C/C=C/c2nc(co2)-c2nc(co2)-c2nc(co2)[C@@H](OC)[C@@H](C)C(=O)/C=C/C[C@H](O)CC(=O)O[C@@H](C[C@H](OC)[C@@H](C)CCC(=O)[C@@H](C)[C@H](O)[C@H](C)/C=C/N(C)C=O)[C@@H]1C [32-HYDROXYMYCALOLIDE A]	0.013 µg/mL (≈ 0.015 µM)
